From ChEMBL document CHEMBL1157690, “Reliability of bond dissociation enthalpy calculated by the PM6 method and experimental TEAC values in antiradical QSAR of flavonoids” (Bioorg Med Chem, 2010)

Experiments:
[1] = DPPH radical scavenging activity assessed as trolox equivalent antioxidant capacity; format: functional
[2] = ABTS radical scavenging activity assessed as trolox equivalent antioxidant capacity; format: physicochemical
[3] = Antioxidant activity assessed as ABTS radical scavenging activity; format: functional

| Compound | Activity [1] | Activity [2] | Activity [3] |
| --- | --- | --- | --- |
| O=c1c(O)c(-c2ccc(O)c(O)c2)oc2cc(O)cc(O)c12 [QUERCETIN] | 4.6 MU | 4.42 MU | – |
| O=c1cc(-c2ccccc2)oc2cc(O)c(O)c(O)c12 [BAICALEIN] | 2.74 MU | 2.56 MU | – |
| O=c1c(-c2ccc(O)cc2)coc2cc(O[C@@H]3O[C@H](CO)[C@@H](O)[C@H](O)[C@H]3O)ccc12 [DAIDZIN] | 0.035 MU | 0.072 MU | – |
| O=c1c(-c2ccc(O)cc2)coc2cc(O[C@@H]3O[C@H](CO)[C@@H](O)[C@H](O)[C@H]3O)cc(O)c12 [GENISTIN] | 0.026 MU | 0.077 MU | – |
| COc1ccc([C@@H]2CC(=O)c3c(O)cc(O[C@@H]4O[C@H](CO[C@@H]5O[C@@H](C)[C@H](O)[C@@H](O)[C@H]5O)[C@@H](O)[C@H](O)[C@H]4O)cc3O2)cc1O [HESPERIDIN] | 0.075 MU | 0.104 MU | – |
| O=c1c(O)c(-c2ccccc2)oc2ccccc12 [FLAVONOL] | 0.484 MU | 0.707 MU | – |
| C[C@@H]1O[C@@H](Oc2cc(O)c3c(=O)c(O[C@@H]4O[C@H](CO)[C@@H](O)[C@H](O)[C@H]4O)c(-c4ccc(O)c(O)c4)oc3c2)[C@@H](O)[C@H](O)[C@@H]1O | 1.63 MU | 1.56 MU | – |
| O=c1cc(-c2ccccc2)oc2cc(O)cc(O)c12 [CHRYSIN] | 0.053 MU | 0.081 MU | – |
| O=c1cc(-c2ccc(O)c(O)c2)oc2cc(O)cc(O)c12 [LUTEOLIN] | 2.24 MU | 2.18 MU | – |
| O=c1c(O)c(-c2ccc(O)cc2O)oc2cc(O)cc(O)c12 [MORIN] | 2.75 MU | 2.68 MU | – |
| C[C@@H]1O[C@@H](Oc2c(-c3ccc(O)c(O)c3)oc3cc(O)cc(O)c3c2=O)[C@H](O)[C@H](O)[C@H]1O [QUERCITRIN] | 2.57 MU | 2.18 MU | – |
| O=c1c(O)c(-c2cc(O)c(O)c(O)c2)oc2cc(O)cc(O)c12 [MYRICETIN] | 1.38 MU | 1.31 MU | – |
| O=C(O[C@@H]1Cc2c(O)cc(O)cc2O[C@@H]1c1cc(O)c(O)c(O)c1)c1cc(O)c(O)c(O)c1 [EPIGALOCATECHIN GALLATE] | 6.08 MU | 5.95 MU | – |
| Oc1cc(O)c2c(c1)O[C@H](c1ccc(O)c(O)c1)[C@H](O)[C@H]2c1c(O)cc(O)c2c1O[C@H](c1ccc(O)c(O)c1)[C@H](O)[C@H]2c1c(O)cc(O)c2c1O[C@H](c1ccc(O)c(O)c1)[C@H](O)C2 [PROCYANIDIN C1] | 8.79 MU | 8.29 MU | – |
| O=c1cc(-c2ccc(O)cc2)oc2cc(O[C@@H]3O[C@H](CO)[C@@H](O)[C@H](O)[C@H]3O)cc(O)c12 [APIGETRIN] | 0.05 MU | 0.083 MU | – |
| O=c1cc(-c2ccc(O)cc2)oc2c([C@@H]3O[C@H](CO)[C@@H](O)[C@H](O)[C@H]3O)c(O)cc(O)c12 [VITEXIN] | 0.205 MU | 0.216 MU | – |
| Oc1cc(O)c2c(c1)O[C@H](c1ccc(O)c(O)c1)[C@@H](O)C2 [CATECHIN] | – | 3.04 MU | – |
| O=c1c(-c2ccc(O)cc2)coc2cc(O)ccc12 [DAIDZEIN] | 0.033 MU | 0.101 MU | – |
| O=C(O)[C@H]1O[C@@H](Oc2cc3oc(-c4ccccc4)cc(=O)c3c(O)c2O)[C@H](O)[C@@H](O)[C@@H]1O [BAICALIN] | 1.79 MU | 1.55 MU | – |
| O=c1c(-c2ccc(O)cc2)coc2cc(O)cc(O)c12 [GENISTEIN] | 0.095 MU | 0.123 MU | – |

| Compound | Activity [1] | Activity [2] | Activity [3] |
| --- | --- | --- | --- |
| C[C@@H]1O[C@@H](O[C@H]2[C@H](Oc3cc(O)c4c(c3)O[C@H](c3ccc(O)cc3)CC4=O)O[C@H](CO)[C@@H](O)[C@@H]2O)[C@H](O)[C@H](O)[C@H]1O [NARINGIN] | 0.077 MU | 0.098 MU | – |
| COc1cc2c(=O)c(-c3ccc(O)cc3)coc2cc1O [GLYCITEIN] | 0.02 MU | 0.097 MU | – |
| COc1ccc([C@@H]2CC(=O)c3c(O)cc(O)cc3O2)cc1O [HESPERETIN] | 0.268 MU | 0.403 MU | – |
| O=c1c(O)c(-c2ccc(O)cc2)oc2cc(O)cc(O)c12 [KAEMPFEROL] | 1.32 MU | 1.59 MU | – |
| O=C(O[C@H]1Cc2c(O)cc(O)cc2O[C@@H]1c1ccc(O)c(O)c1)c1cc(O)c(O)c(O)c1 [CATECHIN GALLATE] | 5.56 MU | 5.25 MU | – |
| O=c1cc(-c2ccc(O)c(O)c2)oc2cc(O[C@@H]3O[C@H](CO)[C@@H](O)[C@H](O)[C@H]3O)cc(O)c12 [GALUTEOLIN] | 1.39 MU | 1.47 MU | – |
| O=C1C[C@@H](c2ccc(O)cc2)Oc2cc(O)cc(O)c21 [NARINGENIN] | 0.136 MU | 0.217 MU | – |
| O=C(/C=C/c1ccc(O)c(O)c1)c1ccc(O)cc1O [BUTEIN] | 2.27 MU | 2.42 MU | – |
| O=c1cc(-c2ccc(O)cc2)oc2cc(O)cc(O)c12 [APIGENIN] | 0.041 MU | 0.086 MU | – |
| O=C1O[C@H]([C@@H](O)CO)C(O)=C1O | – | – | 100 mg/L |
| Oc1cc(O)c2c(c1)O[C@H](c1ccc(O)c(O)c1)[C@H](O)[C@H]2c1c(O)cc(O)c2c1O[C@H](c1ccc(O)c(O)c1)[C@@H](O)C2 [PROCYANIDIN B1] | 5.94 MU | 6.14 MU | – |
| Oc1cc(O)c2c(c1)O[C@H](c1cc(O)c(O)c(O)c1)[C@H](O)C2 [EPIGALLOCATECHIN] | 3.56 MU | 3.71 MU | – |
| O=c1c(O)c(-c2ccccc2)oc2cc(O)cc(O)c12 [GALANGIN] | 0.705 MU | 1.12 MU | – |
| Oc1cc(O)c2c(c1)OC(c1ccc(O)c(O)c1)C(O)C2 (stereo not given) | 2.95 MU | – | – |
| C[C@@H]1O[C@@H](OC[C@H]2O[C@@H](Oc3c(-c4ccc(O)c(O)c4)oc4cc(O)cc(O)c4c3=O)[C@H](O)[C@@H](O)[C@@H]2O)[C@H](O)[C@H](O)[C@H]1O [RUTIN] | 2.33 MU | 2.02 MU | – |
| O=c1c(O[C@@H]2O[C@H](CO)[C@@H](O)[C@H](O)[C@H]2O)c(-c2ccc(O)c(O)c2)oc2cc(O)cc(O)c12 [ISOQUERCETIN] | 2.16 MU | 2.39 MU | – |
| O=C(O[C@@H]1Cc2c(O)cc(O)cc2O[C@@H]1c1ccc(O)c(O)c1)c1cc(O)c(O)c(O)c1 [EPICATECHIN GALLATE] | 5.26 MU | 5.29 MU | – |
| O=C(CCc1ccc(O)cc1)c1c(O)cc(O)cc1O [PHLORETIN] | 1.24 MU | 1.79 MU | – |
| Oc1cc(O)c2c(c1)O[C@H](c1ccc(O)c(O)c1)[C@H](O)C2 [(-)-EPICATECHIN] | 3.18 MU | 3.08 MU | – |
